Assay results taken from patent US20080318949A1, “Pyrazolopyrimidinone Derivatives, Their Preparation And Their Use” (Topharman Shanghai Co., Ltd, priority 2005, published 2008).

Molecular target: T1, PDE5 from human platelets (Homo sapiens, UniProt O76074)
T1 construct: from tissue; host or cells: human platelets
Experiment: PDE5 inhibitory activity test (scintillation proximity assay)
Format: biochemical
Settings: PDE5 from human platelets
Source text: The PDE5 and PDE3 were isolated form human platelets, while the PDE6 was isolated form bovine retinas. The enzyme inhibitory activity test conducted immediately after the enzymes had been isolated, using a scintillation proximity assay for the direct detection of AMP/GMP by the TRKQ7100 and TRKQ7090 kit. In summary, the effect of PDE inhibitors was investigated by assaying a fixed amount of enzyme in the presence of varying inhibitor concentrations and low substrate. The final assay volume was made up to 100 μl with 10 μl assay buffer (50 mM Tris/HCl PH 7.5, 8.3 mM MgCl2, 1.7 mM EGTA), and water. Reactions were initiated with enzyme, incubate for 30 minutes at 30° C. and terminated with 50 μl yttrium silicate SPA beads suspension containing zinc sulphate. Shook for 20 minutes and settled for 30 minutes in the dark, then counted on a BECKMAN LS6500 MULTI-PURPOSE SCINTILLATION COUNTER. The IC50 value for the compounds according the present invention was calculated according the counts.
According to the above-mentioned method, the inhibitory activities of some compounds of formula IA and IB according to the invention against PDE5 from human platelets were determined.

1-methyl-5-{2-ethoxy-5-[bis(3-acetoxypropyl)amidosulfonyl]phenyl}-3-n-propyl-1,6-dihydro-7H-pyrazolo[4,3-d]pyrimidin-7-one [Example 108]
IC50: 17.4 nM

1-methyl-5-{2-ethoxy-5-{[1-ethyl-1-[2-[1-ethyl-1-(2-hydroxyethoxyethyl)]amino]ethyl]amidosulfonyl}phenyl}-3-n-propyl-1,6-dihydro-7H-pyrazolo[4,3-d]pyrimidin-7-one [Example 20]
IC50: 0.505 nM

1-methyl-5-{2-ethoxy-5-{[1-methyl-1-[2-[1-methyl-1-(2-hydroxyethyl)]amino]ethyl]amidosulfonyl}phenyl}-3-n-propyl-1,6-dihydro-7H-pyrazolo[4,3-d]pyrimidin-7-one [Example 21]
IC50: 0.928 nM

1-methyl-5-{2-methoxyethoxy-5-[bis(2-hydroxyethyl)amidosulfonyl]phenyl}-3-n-propyl-1,6-dihydro-7H-pyrazolo[4,3-d]pyrimidin-7-one [Example 10]
IC50: 22.2 nM

1-methyl-5-{2-propoxy-5-[[1-(2-hydroxyethoxyethyl)-1-(2-morpholin-1-yl)ethyl]amidosulfonyl]phenyl}-3-n-propyl-1,6-dihydro-7H-pyrazolo[4,3-d]pyrimidin-7-one [Example 104]
IC50: 13.1 nM

1-methyl-5-{2-propoxy-5-[[1-(2-pyridylmethyl)-1-(2-piperidin-1-yl)ethyl]amidosulfonyl]phenyl}-3-n-propyl-1,6-dihydro-7H-pyrazolo[4,3-d]pyrimidin-7-one [Example 87]
IC50: 8.77 nM

1-methyl-5-{2-propoxy-5-[[1-(3-ethoxyethyl)-1-(2-hydroxyethyl)]amidosulfonyl]phenyl}-3-n-propyl-1,6-dihydro-7H-pyrazolo[4,3-d]pyrimidin-7-one [Example 116]
IC50: 11.2 nM

1-methyl-5-{2-propoxy-5-[[1-benzyl-1-(2-pyrrolidin-1-yl)ethyl]amidosulfonyl]phenyl}-3-n-propyl-1,6-dihydro-7H-pyrazolo[4,3-d]pyrimidin-7-one [Example 84]
IC50: 11.7 nM

1-methyl-5-{2-propoxy-5-[[1-ethyl-1-(2-acetoxyethyl)]amidosulfonyl]phenyl}-3-n-propyl-1,6-dihydro-7H-pyrazolo[4,3-d]pyrimidin-7-one [Example 94]
IC50: 5.41 nM

CCOc1ccc(S(=O)(=O)N(CCOC(C)=O)CCOC(C)=O)cc1-c1nc2c(CC)nn(C)c2c(=O)[nH]1 [Example 6, 1-methyl-5-{2-ethoxy-5-[bis(2-acetoxyethyl)amidosulfonyl]phenyl}-3-ethyl-1,6-dihydro-7H-pyrazolo[4,3-d]pyrimidin-7-one]
IC50: 0.74 nM

CCOc1ccc(S(=O)(=O)N(CCOC(=O)c2cccnc2)CCOC(=O)c2cccnc2)cc1-c1nc2c(CC)nn(C)c2c(=O)[nH]1 [Example 7, 1-methyl-5-{2-ethoxy-5-[bis(2-nicotinoyloxyethyl)amidosulfonyl]phenyl}-3-ethyl-1,6-dihydro-7H-pyrazolo[4,3-d]pyrimidin-7-one]
IC50: 0.5 nM

CCOc1ccc(S(=O)(=O)N(CCO)CCO)cc1-c1nc2c(CC)nn(C)c2c(=O)[nH]1 [Example 8]
IC50: 2.14 nM

CCCc1nn(C)c2c(=O)[nH]c(-c3cc(S(=O)(=O)N(CCOC(C)=O)CCOC(C)=O)ccc3OCCOC)nc12 [Example 9, 1-methyl-5-{2-methoxyethoxy-5-[bis(2-acetoxyethyl)amidosulfonyl]phenyl}-3-n-propyl-1,6-dihydro-7H-pyrazolo[4,3-d]pyrimidin-7-one]
IC50: 16.9 nM

CCCc1nn(C)c2c(=O)[nH]c(-c3cc(S(=O)(=O)N(CCOC)CCN(CC)CC)ccc3OCC)nc12 [Example 11, 1-methyl-5-{2-ethoxy-5-[[1-(2-diethylaminoethyl)-1-(2-methoxyethyl)]amidosulfonyl]phenyl}-3-n-propyl-1,6-dihydro-7H-pyrazolo[4,3-d]pyrimidin-7-one]
IC50: 38.1 nM

CCCc1nn(C)c2c(=O)[nH]c(-c3cc(S(=O)(=O)N(CCOC(C)=O)CCN(CC)CC)ccc3OCC)nc12 [Example 12, 1-methyl-5-{2-ethoxy-5-[[1-(2-diethylaminoethyl)-1-(2-acetoxyethyl)]amidosulfonyl]phenyl}-3-n-propyl-1,6-dihydro-7H-pyrazolo[4,3-d]pyrimidin-7-one]
IC50: 6.98 nM

CCCc1nn(C)c2c(=O)[nH]c(-c3cc(S(=O)(=O)N(CCO)CCN(CC)CC)ccc3OCC)nc12 [Example 13, 1-methyl-5-{2-ethoxy-5-[1-(2-diethylaminoethyl)-1-(2-hydroxyethyl)amidosulfonyl]phenyl}-3-n-propyl-1,6-dihydro-7H-pyrazolo[4,3-d]pyrimidin-7-one]
IC50: 7.37 nM

CCCOc1ccc(S(=O)(=O)N(CCO)CCN(CC)CC)cc1-c1nc2c(CCC)nn(C)c2c(=O)[nH]1 [Example 14, 1-methyl-5-{2-propoxy-5-[1-(2-diethylaminoethyl)-1-(2-hydroxyethyl)amidosulfonyl]phenyl}-3-n-propyl-l,6-dihydro-7H-pyrazolo[4,3-d]pyrimidin-7-one]
IC50: 0.862 nM

CCCc1nn(C)c2c(=O)[nH]c(-c3cc(S(=O)(=O)N(CCOCCOC(C)=O)CCN(CC)CC)ccc3OCC)nc12 [Example 15, 1-methyl-5-{2-ethoxy-5-[1-(2-diethylaminoethyl)-1-(2-acetoxyethoxyethyl)amidosulfonyl]phenyl}-3-n-propyl-1,6-dihydro-7H-pyrazolo[4,3-d]pyrimidin-7-one]
IC50: 10.6 nM

CCCc1nn(C)c2c(=O)[nH]c(-c3cc(S(=O)(=O)N(CCOCCO)CCN(CC)CC)ccc3OCC)nc12 [Example 16, 1-methyl-5-{2-ethoxy-5-[1-(2-diethylaminoethyl)-1-(2-hydroxyethoxyethyl)amidosulfonyl]phenyl}-3-n-propyl-1,6-dihydro-7H-pyrazolo[4,3-d]pyrimidin-7-one]
IC50: 13.4 nM

CCCc1nn(C)c2c(=O)[nH]c(-c3cc(S(=O)(=O)N(CC)CCN(CC)CCOC(C)=O)ccc3OCC)nc12 [Example 17]
IC50: 8.55 nM

CCCc1nn(C)c2c(=O)[nH]c(-c3cc(S(=O)(=O)N(CC)CCN(CC)CCO)ccc3OCC)nc12 [Example 18]
IC50: 6.32 nM

CCOc1ccc(S(=O)(=O)N(CC)CCN(CC)CCOC(C)=O)cc1-c1nc2c(CC)nn(CC)c2c(=O)[nH]1 [Example 19, 1-ethyl-5-{2-ethoxy-5-{[1-ethyl-1-[2-[1-ethyl-1-(2-acetoxyethyl)]amino]ethyl]amidosulfonyl}phenyl}-3-n-propyl-1,6-dihydro-7H-pyrazolo[4,3-d]pyrimidin-7-one]
IC50: 4.29 nM

CCCc1nn(C)c2c(=O)[nH]c(-c3cc(S(=O)(=O)N(C)CCN(C)CCOCCOCCOCc4ccccc4)ccc3OCC)nc12 [Example 22, 1-methyl-5-{2-ethoxy-5-{[1-methyl-1-[2-[1-methyl-1-(2-benzyloxyethoxyethoxyethyl)]amino]ethyl]amidosulfonyl}phenyl}-3-n-propyl-1,6-dihydro-7H-pyrazolo[4,3-d]pyrimidin-7-one]
IC50: 0.294 nM

CCCOc1ccc(S(=O)(=O)N(C)CCN(C)CCO)cc1-c1nc2c(CCC)nn(C)c2c(=O)[nH]1 [Example 23, 1-methyl-5-{2-propoxy-5-{[1-methyl-1-[2-[1-methyl-1-(2-hydroxyethyl)]amino]ethyl]amidosulfonyl}phenyl}-3-n-propyl-1,6-dihydro-7H-pyrazolo[4,3-d]pyrimidin-7-one]
IC50: 0.072 nM
